Measured values as given in patent US11723362B2, “Broad-spectrum synergistic antimicrobial compositions” (The United States of America, as represented by the …, priority 2019, dated 2023).
One block for each compound: values may come before it.

Tests used:
P. aeruginosa = experiment: Minimum inhibitory concentration (MIC) in Mueller-Hinton broth, pH 7.4; type: cell-based, Pseudomonas aeruginosa; parameters: Minimum inhibitory concentration: unit not given here
Experimental: (§1) This example illustrates the preparation of testing parameters for antimicrobial activity of components of the inventive composition and related compositions for comparison. […] Microbes were grown on Mueller-Hinton agar (MHA, Sigma-Aldrich, St. Louis, Mo.) for 7 days until heavy sporulation was present. Spores from two agar plates were captured in sterile phosphate-buffered saline (PBS) using a sterile swab. Spores were enumerated by serial dilution in Dey-Engley neutralizing broth (DEB; Sigma-Aldrich) and spread plating on MHA. A typical spore stock was determined to contain ˜2×10^7 spores/mL. Bacteria were grown in MH broth for 24 h at 37° C., enumerated by plating, and diluted to the desired concentration as indicated.
(§2) To assess the antimicrobial activity of hydroxamic acids and derivatives, the inhibitory properties of commercially available hydroxylamines and hydroxamic acids were compared to their alcohol and carboxylic acid analogues diluted in Mueller-Hinton broth at pH 7.4 (Table 1).
Guanylhydrazones 7 and 8, which represent a class of broad-spectrum antimicrobials, alone and in combination with hydroxamic acids were evaluated.

S. aureus = experiment: as above; type: cell-based, Staphylococcus aureus
Experimental: as §1, §2

C. albicans = experiment: as above; type: cell-based, Candida albicans
Experimental: as §1, §2

[1] = tested on: Aspergillus brasiliensis ATCC 16404; experiment: Effect of pH on antifungal properties of HW formula under high fungal load; type: cell-based; details: HW with 0.5% CHA alone; 10^7 CFU/mL; pH 5.5-9.5; plated six days after inoculation
From the text: FIG. 1 illustrates the fungicidal properties of a handwash formula containing the inventive composition as further explained in the examples below. The Y axis presents the log reduction of cell forming units per mL (CFU/mL). The X axis presents the pH of the different formulas. Data for benzaldehyde guanylhydrazone 7+CHA is shown with black lines (BGH+CHA); data for benzaldehyde guanylhydrazone 7 (BGH) is shown with dotted lines; data for CHA alone is shown with grey lines.
(§3) This example illustrates the surprising synergistic antimicrobial activity of the inventive composition and related compositions for comparison tested on two of the most persistent microorganisms tested in the USP 51 protocol: A. brasiliensis (ATCC No. 16404) and P. aeruginosa (ATCC NO. 9027). The effect of pH on antifungal properties of a HW formula containing 0.4% 7 and 0.5% CHA, alone and in combination, was then evaluated under a high fungal load (10^7 CFU/mL). […] Without intending to be bound by theory, it was suspected that the poor performance of the combination at neutral pH results from the milder conditions of this formula, which is more encouraging to mold growth.

A. brasiliensis = experiment: Minimum inhibitory concentration (MIC) in Mueller-Hinton broth, pH 7.4; type: cell-based, Aspergillus brasiliensis; parameters: Minimum inhibitory concentration: unit not given here
Experimental: as §1, §2

A. brasiliensis 16404 = experiment: USP-51 preservative challenge test of anionic, amphoteric surfactant-containing hand wash; type: cell-based, Aspergillus brasiliensis; details: HW pH 6; formulas: 0.4% 7; 0.5% CHA; 0.2% 7 + 0.5% CHA
Experimental: (§4) Preservative challenge testing (USP-51).
as §3

[2] = Dissolution / compatibility in water (observation); type: physicochemical; details: solubilizing for testing; room temperature
Experimental: Several aryl derivatives of benzhydroxamic acid were also tested.

E. coli = experiment: Minimum inhibitory concentration (MIC) in Mueller-Hinton broth, pH 7.4; type: cell-based, Escherichia coli
Experimental: as §1, §2

mold = experiment: USP <51> preservative efficacy in nonionic spray cleaner base (mold); type: cell-based, A. brasiliensis; details: alone, 0.1% in spray cleaner base
From the text: as §4

P. aeruginosa ATCC 9027 = experiment: Tile surface disinfectant test (adapted from ASTM E1153); type: cell-based, Pseudomonas aeruginosa; details: 200 ppm; 4×10^6 CFU/mL; sprayed ceramic tile
Experimental: Tile surface disinfectant tests. Surface sanitation tests were adapted from ASTM Test Method E1153. Test bacteria (Escherichia coli ATCC 15597 and Pseudomonas aeruginosa ATCC 9027; American Type Culture Collection, Manassas, Va.) were streaked from frozen stock culture onto Mueller-Hinton agar (MHA; Sigma-Aldrich, St Louis, Mo.) and incubated at 30-37° C. for 2-4 days to produce isolated colonies. Two to three representative colonies were picked and transferred to 10 mL Mueller-Hinton broth (MHB; Sigma) and incubated at 37° C. overnight. Cultures underwent a maximum of 3 passes to fresh broth before being incubated for 48 h at 37° C. to be used as the inoculum. Sterile, glazed 2×2-inch ceramic tiles were inoculated with 100 μL of 48 h culture and allowed to dry for <1 h. Spray sanitizer solutions were prepared by mixing the test compound (5) in deionized, filtered water. Benzalkonium chloride (≥95%, Sigma) or bleach solution was used as a positive control and deionized, filtered water was used as a negative control. Solutions were transferred to 250 mL spray bottles, previously checked for spray volume consistency. For each treatment, tiles were sprayed 3 times. At the designated contact time, 15 mL of Dey-Engley broth (DEB; Sigma) was poured onto the tiles. Tiles were briskly swirled 50 times with DEB to neutralize antimicrobial agents and recover bacteria. This procedure was followed in duplicate for each treatment and contact time. The sanitizer-DEB solutions were then serially diluted in phosphate-buffered saline and plated on MHA. MHA plates were incubated at 37° C. for 18-24 h and colonies enumerated. To determine log reduction, bacteria recovered from treated tiles were compared to bacteria recovered from 2-3 replicate inoculated, untreated tiles.

MIC (P. aeruginosa): 0.5 wt %
MIC (S. aureus): 0.2 wt %
MIC (C. albicans): 0.03 wt %
MIC (A. brasiliensis): 0.03 wt %
MIC (E. coli): 0.1 wt %
SMILES: CCCCCCCC(=O)NO [Caprylhydroxamic acid (CHA), Caprylhydroxamic acid]
Minimum inhibitory concentration (P. aeruginosa; Table 2, ATCC 9027): 0.5
log reduction over the entire pH range [1]: 0-1 log
Minimum inhibitory concentration (A. brasiliensis; Table 2): 0.03
Log10 Reduction, Day 6 (A. brasiliensis 16404): 2.24 Log10
dissolution behaviour [2]: required heating and stirring to solubilize

SMILES: O=C([O-])c1ccccc1.[Na+] [Sodium benzoate, sodium benzoate]
log reduction of mold (not eliminated to nondetectable levels) (mold): < 2 log

SMILES: OCl [sodium hypochlorite]
reduction at 15 seconds (P. aeruginosa ATCC 9027): 97.44%
reduction at 5 min (P. aeruginosa ATCC 9027): > 99.998%
reduction at 10 min (P. aeruginosa ATCC 9027): > 99.998%
